Converted amounts (≈) assume the structure as drawn.
Columns and labels:
Assay in all cases: Agar dilution method microbicidal test
Type in all cases: cell-based
Streptococcus pneumoniae = test system: Streptococcus pneumoniae; for Growth on agar plate: key: +: grew; −: did not grow
Experimental: (§1) As microbicidal test method for trans-p-coumaric acid, 3-hydroxypyridine, p-hydroxybenzaldehyde and vanillin, the agar dilution method was employed.
(§2) In agar dilution method, a solution in which a sample is dissolved is serially diluted several times, and each of the diluted sample solutions is mixed with agar medium to prepare plate agars having various sample concentration. Then bacteria is inoculated onto the plate agars. In cases where the sample has a microbicidal activity, the growth of the bacteria on the plates can be inhibited. The lowest concentration which can inhibit the growth of the bacteria is referred to as Minimum Inhibitory Concentration (MIC), thereby judging the degree of a microbicidal activity of the sample.
(§3) First, 400 mg of sample was dissolved in 1 mL of DMSO to prepare 400 mg/mL sample solution. Then 0.5 mL of this 400 mg/mL sample solution was diluted 2-fold to prepare 200 mg/mL sample solution. In the same manner, sample solutions of 100 mg/mL, 50.0 mg/mL, and 25.0 mg/mL were prepared. In addition, 300 mg/mL sample solution was prepared. Thereafter, 0.2 mL of these sample solutions each was mixed with 19.8 mL of BHI (Brain Heart Infusion Agar, Becton Dickinson, MD) medium, thereby preparing agar plates having the sample concentration of 4.0 mg/mL, 3.0 mg/mL, 2.0 mg/mL, 1.0 mg/mL, 0.5 mg/mL, and 0.25 mg/mL in dishes. […] Sterilized water was used for dissolving catechin, because catechin was insoluble in DMSO.
(§4) As test bacteria, 13 kinds of bacteria, i.e., Streptococcus pneumoniae, Streptococcus pyogenes, Enterococcus faecalis, Staphylococcus aureus, Escherichia coli, Salmonella sp., Yersinia enterocolitica, Vibrio parahaemolyticus, Pseudomonas aeruginosa, Bacillus cereus, Bacillus subtilis MB-32, Bacillus subtilis ATCC6633, and Candida sp., were used. These bacteria each was mixed with 2 mL of sterilized MHB^R liquid medium (Mueller Hinton Broth^R, Becton Dickinson, MD) to prepare bacterial suspension having turbidity 1 (bacterial concentration 10^8/mL). Previously, small test tubes were set into each cell of a grating and sterilized, and 1 mL of 13 bacterial suspensions were added into the small test tubes set in the grating, respectively. By using a microplanter (SAKUMA, model: MIT-P), 10 μL aliquot was collected from each test tube set in the grating and transferred to other test tube, and the transferred bacterial suspensions were diluted 100-fold (bacterial concentration 10^6/mL).
(§5) By using the microplanter, 10 μL (bacterial number […]) of this bacterial suspension was inoculated onto the plates containing the sample solution of various concentrations. The plates were incubated for 18 hours in an incubator at 37° C., and then a microbicidal activity of each compound was assessed.

Pseudomonas aeruginosa = test system: Pseudomonas aeruginosa; for Growth on agar plate: key: +: grew; −: did not grow
Experimental: as §1, §2, §3, §4, §5

Yersinia enterocolitica = test system: Yersinia enterocolitica; for Growth on agar plate: key: +: grew; −: did not grow
Experimental: as §1, §2, §3, §4, §5

Escherichia coli = test system: Escherichia coli; for Growth on agar plate: key: +: grew; −: did not grow
Experimental: as §1, §2, §3, §4, §5

Bacillus cereus = test system: Bacillus cereus; for Growth on agar plate: key: +: grew; −: did not grow
Experimental: as §1, §2, §3, §4, §5

[1] = test system: Bacillus subtilis ATCC6633; for Growth on agar plate: key: +: grew; −: did not grow
Experimental: as §1, §2, §3, §4, §5

Staphylococcus aureus = test system: Staphylococcus aureus; for Growth on agar plate: key: +: grew; −: did not grow
Experimental: as §1, §2, §3, §4, §5

Candida sp. = test system: Candida sp. For Growth on agar plate: key: +: grew; −: did not grow.
Experimental: as §1, §2, §3, §4, §5

Enterococcus faecalis = test system: Enterococcus faecalis; note: key: +: grew; −: did not grow
Experimental: as §1, §2, §3, §4, §5

Salmonella sp. = test system: Salmonella sp. For Growth on agar plate: key: +: grew; −: did not grow.
Experimental: as §1, §2, §3, §4, §5

Streptococcus pyogenes = test system: Streptococcus pyogenes; for Growth on agar plate: key: +: grew; −: did not grow
Experimental: as §1, §2, §3, §4, §5

Vibrio parahaemolyticus = test system: Vibrio parahaemolyticus; for Growth on agar plate: key: +: grew; −: did not grow
Experimental: as §1, §2, §3, §4, §5

Bacillus subtilis MB-32 = test system: Bacillus subtilis MB-32; for Growth on agar plate: key: +: grew; −: did not grow
Experimental: as §1, §2, §3, §4, §5

[2] = BHI agar, 37° C., 18 hours, read-out: MIC

O=Cc1ccc(O)cc1 [p-Hydroxybenzaldehyde, p-hydroxybenzaldehyde]
activity (in words) (Streptococcus pneumoniae): had an activity
Growth on agar plate (Streptococcus pneumoniae; 0.25 mg/mL): +
Growth on agar plate (Streptococcus pneumoniae; 0.5 mg/mL): +
Growth on agar plate (Streptococcus pneumoniae; 1.0 mg/mL): +
Growth on agar plate (Streptococcus pneumoniae; 2.0 mg/mL): −
Growth on agar plate (Streptococcus pneumoniae; 3.0 mg/mL): −
Growth on agar plate (Streptococcus pneumoniae; 4.0 mg/mL): −
MIC (Streptococcus pneumoniae; [2]): 2000 µg/mL (≈ 16.4 mM)
activity (in words) (Pseudomonas aeruginosa): had an activity
Growth on agar plate (Pseudomonas aeruginosa; 0.25 mg/mL): +
Growth on agar plate (Pseudomonas aeruginosa; 0.5 mg/mL): +
Growth on agar plate (Pseudomonas aeruginosa; 1.0 mg/mL): +
Growth on agar plate (Pseudomonas aeruginosa; 2.0 mg/mL): −
Growth on agar plate (Pseudomonas aeruginosa; 3.0 mg/mL): −
Growth on agar plate (Pseudomonas aeruginosa; 4.0 mg/mL): −
MIC (Pseudomonas aeruginosa; [2]): 2000 µg/mL (≈ 16.4 mM)
activity (in words) (Yersinia enterocolitica): strong microbicidal activity
Growth on agar plate (Yersinia enterocolitica; 0.25 mg/mL): +
Growth on agar plate (Yersinia enterocolitica; 0.5 mg/mL): −
Growth on agar plate (Yersinia enterocolitica; 1.0 mg/mL): −
Growth on agar plate (Yersinia enterocolitica; 2.0 mg/mL): −
Growth on agar plate (Yersinia enterocolitica; 3.0 mg/mL): −
Growth on agar plate (Yersinia enterocolitica; 4.0 mg/mL): −
MIC (Yersinia enterocolitica; [2]): 500 µg/mL (≈ 4.09 mM)
activity (in words) (Escherichia coli): had an activity
Growth on agar plate (Escherichia coli; 0.25 mg/mL): +
Growth on agar plate (Escherichia coli; 0.5 mg/mL): +
Growth on agar plate (Escherichia coli; 1.0 mg/mL): +
Growth on agar plate (Escherichia coli; 2.0 mg/mL): −
Growth on agar plate (Escherichia coli; 3.0 mg/mL): −
Growth on agar plate (Escherichia coli; 4.0 mg/mL): −
MIC (Escherichia coli; [2]): 2000 µg/mL (≈ 16.4 mM)
activity (in words) (Bacillus cereus): had an activity
Growth on agar plate (Bacillus cereus; 0.25 mg/mL): +
Growth on agar plate (Bacillus cereus; 0.5 mg/mL): +
Growth on agar plate (Bacillus cereus; 1.0 mg/mL): +
Growth on agar plate (Bacillus cereus; 2.0 mg/mL): +
Growth on agar plate (Bacillus cereus; 3.0 mg/mL): −
Growth on agar plate (Bacillus cereus; 4.0 mg/mL): −
MIC (Bacillus cereus; [2]): 3000 µg/mL (≈ 24.6 mM)
MIC ([1]; ATCC6633, Bacillus subtilis ATCC 6633, BHI agar, 37° C., 18 hours, read-out: MIC): 3000 µg/mL (≈ 24.6 mM)
activity (in words) ([1]; Bacillus subtilis ATCC6633): had an activity
Growth on agar plate ([1]; Bacillus subtilis ATCC 6633, 0.25 mg/mL): +
Growth on agar plate ([1]; Bacillus subtilis ATCC 6633, 0.5 mg/mL): +
Growth on agar plate ([1]; Bacillus subtilis ATCC 6633, 1.0 mg/mL): +
Growth on agar plate ([1]; Bacillus subtilis ATCC 6633, 2.0 mg/mL): +
Growth on agar plate ([1]; Bacillus subtilis ATCC 6633, 3.0 mg/mL): −
Growth on agar plate ([1]; Bacillus subtilis ATCC 6633, 4.0 mg/mL): −
activity (in words) (Staphylococcus aureus): had an activity
Growth on agar plate (Staphylococcus aureus; 0.25 mg/mL): +
Growth on agar plate (Staphylococcus aureus; 0.5 mg/mL): +
Growth on agar plate (Staphylococcus aureus; 1.0 mg/mL): +
Growth on agar plate (Staphylococcus aureus; 2.0 mg/mL): +
Growth on agar plate (Staphylococcus aureus; 3.0 mg/mL): −
Growth on agar plate (Staphylococcus aureus; 4.0 mg/mL): −
MIC (Staphylococcus aureus; [2]): 3000 µg/mL (≈ 24.6 mM)
activity (in words) (Candida sp.): had an activity
Growth on agar plate (Candida sp.; 0.25 mg/mL): +
Growth on agar plate (Candida sp.; 0.5 mg/mL): +
Growth on agar plate (Candida sp.; 1.0 mg/mL): +
Growth on agar plate (Candida sp.; 2.0 mg/mL): +
Growth on agar plate (Candida sp.; 3.0 mg/mL): −
Growth on agar plate (Candida sp.; 4.0 mg/mL): −
MIC (Candida sp.; [2]): 3000 µg/mL (≈ 24.6 mM)
Growth on agar plate (Enterococcus faecalis; 0.25 mg/mL): +
Growth on agar plate (Enterococcus faecalis; 0.5 mg/mL): +
Growth on agar plate (Enterococcus faecalis; 1.0 mg/mL): +
Growth on agar plate (Enterococcus faecalis; 2.0 mg/mL): +
Growth on agar plate (Enterococcus faecalis; 3.0 mg/mL): +
Growth on agar plate (Enterococcus faecalis; 4.0 mg/mL): +
activity (in words) (Salmonella sp.): had an activity
Growth on agar plate (Salmonella sp.; 0.25 mg/mL): +
Growth on agar plate (Salmonella sp.; 0.5 mg/mL): +
Growth on agar plate (Salmonella sp.; 1.0 mg/mL): +
Growth on agar plate (Salmonella sp.; 2.0 mg/mL): −
Growth on agar plate (Salmonella sp.; 3.0 mg/mL): −
Growth on agar plate (Salmonella sp.; 4.0 mg/mL): −
MIC (Salmonella sp.; [2]): 2000 µg/mL (≈ 16.4 mM)
activity (in words) (Streptococcus pyogenes): had an activity
Growth on agar plate (Streptococcus pyogenes; 0.25 mg/mL): +
Growth on agar plate (Streptococcus pyogenes; 0.5 mg/mL): +
Growth on agar plate (Streptococcus pyogenes; 1.0 mg/mL): +
Growth on agar plate (Streptococcus pyogenes; 2.0 mg/mL): −
Growth on agar plate (Streptococcus pyogenes; 3.0 mg/mL): −
Growth on agar plate (Streptococcus pyogenes; 4.0 mg/mL): −
MIC (Streptococcus pyogenes; [2]): 2000 µg/mL (≈ 16.4 mM)
activity (in words) (Vibrio parahaemolyticus): had an activity
Growth on agar plate (Vibrio parahaemolyticus; 0.25 mg/mL): +
Growth on agar plate (Vibrio parahaemolyticus; 0.5 mg/mL): +
Growth on agar plate (Vibrio parahaemolyticus; 1.0 mg/mL): +
Growth on agar plate (Vibrio parahaemolyticus; 2.0 mg/mL): −
Growth on agar plate (Vibrio parahaemolyticus; 3.0 mg/mL): −
Growth on agar plate (Vibrio parahaemolyticus; 4.0 mg/mL): −
MIC (Vibrio parahaemolyticus; [2]): 2000 µg/mL (≈ 16.4 mM)
activity (in words) (Bacillus subtilis MB-32): had an activity
Growth on agar plate (Bacillus subtilis MB-32; 0.25 mg/mL): +
Growth on agar plate (Bacillus subtilis MB-32; 0.5 mg/mL): +
Growth on agar plate (Bacillus subtilis MB-32; 1.0 mg/mL): +
Growth on agar plate (Bacillus subtilis MB-32; 2.0 mg/mL): +
Growth on agar plate (Bacillus subtilis MB-32; 3.0 mg/mL): +
Growth on agar plate (Bacillus subtilis MB-32; 4.0 mg/mL): −
MIC (Bacillus subtilis MB-32; MB32, BHI agar, 37° C., 18 hours, read-out: MIC): 3000 µg/mL (≈ 24.6 mM)
